Measured values: patent US20220168403A1, “SUBCUTANEOUS TELOMERASE INHIBITOR COMPOSITIONS AND METHODS FOR USING SAME” (Geron Corporation, priority 2020, published 2022)

Key:
[1] = tested on: patients with lower risk myelodysplastic syndrome; conditions: administered intravenously; cited from earlier work
[2] = tested on: template region of the RNA component of telomerase; conditions: background statement; cited from earlier work
[3] = Bioavailability of imetelstat sodium in rats via subcutaneous and intravenous routes (plasma LC/MS/MS, noncompartmental PK); assay type: in vivo, Sprague-Dawley rats
Experimental: 4 male, Sprague-Dawley rats (approximately 250 g-260 g) were dosed intravenously (IV volume 37.5 μL; 30 mg/kg) and 4 male, Sprague-Dawley rats (approximately 250 g-260 g) were dosed subcutaneously (SC volume 113 μL; 90 mg/kg) with imetelstat sodium. Imetelstat sodium is a 5′ palmitoylated 13-mer thiophosphoramidate oligonucleotide composed of the sequence 5′-TAGGGTTAGACAA-3′. Imetelstat sodium was dissolved in water immediately before dosing.
Blood was collected from each of the rats at time points of 0.083 hours (˜5 minutes), 0.25 hours (15 minutes), 1 hour, 2 hours, 4 hours, 8 hours and at 24 hours. A volume of […] of whole blood was collected, yielding about 700 μL to 1000 μL of plasma. Blood was collected through a secondary catheter in IV dosed rats (different from the one used for IV dosing).
Blood samples were collected in EDTA tubes and centrifuged immediately after collection. Collected plasma samples were transferred to a separate vial. Plasma concentration of imetelstat sodium was analyzed by LC/MS/MS.
The plasma concentrations of imetelstat sodium that were analyzed over a 24 hour period are depicted in FIG. 1. The plasma concentrations of imetelstat sodium were analyzed by a noncompartmental PK analysis. The subcutaneous (s.c.) bioavailability was calculated based on the following equation: F=(AUC(s.c.)/Dose(s.c.))/(AUC(i.v.)/Dose(i.v.))×100%.

[4] = tested on: cancer cell lines and human tumors; conditions: U.S. Pat. No. 7,494,982, cited from earlier work
[5] = Pre-study compatibility of imetelstat co-formulated with rHuPH20 (appearance, UV assay, water content, pH, RP-HPLC/UV); assay type: physicochemical
Experimental: The following formulations were prepared

[6] = tested on: patients with myelofibrosis; conditions: administered intravenously, correlated with reduction of mutation burden and cytogenetic abnormalities; cited from earlier work

Question: For `CCCCCCCCCCCCCCCC(=O)NCC(O)COP(=O)([S-])OC[C@H]1O[C@@H](n2cc(C)c(=O)[nH]c2=O)CC1NP(=O)([S-])OC[C@H]1O[C@@H](n2cnc3c(N)ncnc32)CC1NP(=O)([S-])OC[C@H]1O[C@@H](n2cnc3c(=O)[nH]c(N)nc32)CC1NP(=O)([S-])OC[C@H]1O[C@@H](n2cnc3c(=O)[nH]c(N)nc32)CC1NP(=O)([S-])OC[C@H]1O[C@@H](n2cnc3c(=O)[nH]c(N)nc32)CC1NP(=O)([S-])OC[C@H]1O[C@@H](n2cc(C)c(=O)[nH]c2=O)CC1NP(=O)([S-])OC[C@H]1O[C@@H](n2cc(C)c(=O)[nH]c2=O)CC1NP(=O)([S-])OC[C@H]1O[C@@H](n2cnc3c(N)ncnc32)CC1NP(=O)([S-])OC[C@H]1O[C@@H](n2cnc3c(=O)[nH]c(N)nc32)CC1NP(=O)([S-])OC[C@H]1O[C@@H](n2cnc3c(N)ncnc32)CC1NP(=O)([S-])OC[C@H]1O[C@@H](n2ccc(N)nc2=O)CC1NP(=O)([S-])OC[C@H]1O[C@@H](n2cnc3c(N)ncnc32)CC1NP(=O)([S-])OC[C@H]1O[C@@H](n2cnc3c(N)ncnc32)CC1N.[Na+].[Na+].[Na+].[Na+].[Na+].[Na+].[Na+].[Na+].[Na+].[Na+].[Na+].[Na+].[Na+]` (stereo partly drawn) [imetelstat sodium, 5′ palmitoylated 13-mer thiophosphoramidate oligonucleotide composed of the sequence 5′-TAGGGTTAGACAA-3′], which transfusion independence [1] is on record?
Answer: The transfusion independence was “able to achieve durable transfusion independence in certain patients”.

Question: What about the “binding to the template region of the RNA component of telomerase” value [2] of the same molecule?
Answer: The value was “high affinity”.

Question: What about the “calculated subcutaneous bioavailability (F)” value ([3]; SC 90 mg/kg vs IV 30 mg/kg, F=(AUC(s.c.)/Dose(s.c.))/(AUC(i.v.)/Dose(i.v.))×100%, 24 hour period) of the same molecule?
Answer: The value was “about 95.8%”.

Question: What about the “calculated subcutaneous bioavailability (F)” value ([3]; repeated experiment) of the same molecule?
Answer: The value was “about 81.5%”.

Question: What about the telomerase activity inhibition ([4]; background) of the same molecule?
Answer: Its telomerase activity inhibition is “inhibits telomerase activity”.

Question: And the “effect on cell proliferation” value ([4]; multitude of different cancer cell lines and human tumors)?
Answer: Its value is “effective against cell proliferation”.

Question: And the “Individual Impurities by RP-HPLC/UV: Unlipidated species” value ([5]; RRT 0.42)?
Answer: The value was 0.26% Area.

Question: And the “Individual Impurities by RP-HPLC/UV: Pre-Peak” value ([5]; RRT 0.98)?
Answer: Its value is 0.35% Area.

Question: And the “Individual Impurities by RP-HPLC/UV: Post-Peak 1” value ([5]; RRT 1.04)?
Answer: The value was 5.04% Area.

Question: And the “Individual Impurities by RP-HPLC/UV: Post-Peak 2” value ([5]; RRT 1.08)?
Answer: Its value is 0.53% Area.

Question: And the “Individual Impurities by RP-HPLC/UV: Post-Peak 3” value ([5]; RRT 1.12 (Imetelstat Only), 1.09 (co-formulations))?
Answer: Its value is <0.2% Area.

Question: And the “Assay by UV” value ([5]; pre-study)?
Answer: Its value is 1033 µg/mg.

Question: And the “Water Content” value ([5]; pre-study)?
Answer: Its value is 4.2%.

Question: What about the “pH (1 mL, Plastic)” value ([5]; pre-study) of the same molecule?
Answer: Its value is 8.0.

Question: What about the “Purity by RP-HPLC/UV” value ([5]; pre-study compatibility) of the same molecule?
Answer: Its value is 93.1%.

Question: What about the “Total Impurities by RP-HPLC/UV” value ([5]; pre-study compatibility) of the same molecule?
Answer: The value was 6.9%.

Question: What about the “Appearance of Reconstituted Solution” value ([5]; pre-study, Imetelstat Only = most current stability data of the drug substance lot) of the same molecule?
Answer: Its value is “Clear solution,”.

Question: And the “overall survival and bone marrow fibrosis” value [6]?
Answer: The value was “able to achieve improvement in overall survival and bone marrow fibrosis”.
